Bounds are passed on as bounds.

One data set deals with TF-1. Put plainly: Cell viability (CELL TITER-GLO), Compound 1 IC50. The format is cell-based. Particulars: Homo sapiens; TF-1 (erythroblast, FAB M6). The method, then: (§1) For CELL TITER-GLO® (CTG; Promega) and Incucyte assays, cells were seeded at 0.1 million per mL, 50 μL per well of Corning black 384-well plate and allowed set overnight. The next day, test compounds were dispensed using a Tecan D300e digital dispenser according to manufacturer's instruction.
(§2) Human AML cell lines, HL-60 (CCL-240), KG-1 (CCL-246), ML-2 (ACC-15), MOLM-13 (ACC-554), MV-4-11 (CRL-9591), NOMO-1 (ACC-542), TF-1 (CRL-2003), THP-1 (TIB-202), and U937 (CRL-1593) were obtained from American Type Culture Collection (ATCC; Manassas, VA) or Deutsche Sammlung von Mikroorganismen and Zellkulturen (DSMZ, Germany) cell banks. Acute myeloid leukemia cell lines were maintained in RPMI-1640 (ATCC Cat No. 30-2001) containing 20% fetal bovine serum (FBS) (Corning Cat No. 35-010-CV) and maintained in humidified incubators at 5% carbon dioxide.
(§3) AML cell lines and primary AML were treated in duplicate or triplicates with DMSO or test compounds in 384-well plates for 3 days. Cell viability was determined by CELL TITER-GLO® (CTG; Promega) assay kit according to manufacturer's instructions. Apoptosis was monitored using Caspase 3/7 Green reagent (Essen Biosciences Cat No. 4440). Caspase-3/7 activation levels were quantified using the IncuCyte™ ZOOM basic analyzer.
(§4) Cell proliferation (CTG) and caspase 3/7 activation (IncuCyte) were analyzed using GraphPad Prism. Electrochemiluminescence data was analyzed using MSD Discovery Workbench platform.
Background: ATP-based viability assays read luminescence as a measure of living cells.

The next data set has as its system NOMO-1. Put plainly: Cell viability (CELL TITER-GLO), Compound 1 IC50. The format is cell-based. Conditions: Homo sapiens; NOMO-1 (macrophage, FAB M5a). How it is done: as §1, §2, §3, §4
For the next data set, the system named is MV4-11. The data set is described as follows: Cell viability (CELL TITER-GLO), Compound 1 IC50. The format is cell-based. Conditions: Homo sapiens; MV4-11 (acute myeloid leukemia, FAB M5). How it is done: as §1, §2, §3, §4
The subject of a further data set is MOLM-13. Put plainly: Cell viability (CELL TITER-GLO), Compound 1 IC50. The format is cell-based. Conditions: Homo sapiens; MOLM-13 (monocytic, FAB M5a). The method, then:
as §1, §2, §3, §4

The subject of a further data set is KG-1. Put plainly: Cell viability (CELL TITER-GLO), Compound 1 IC50. Conditions: Homo sapiens; KG-1 (myeloblast, FAB M0). The format is cell-based. How it is done: as §1, §2, §3, §4
A further data set can be described thus: physchem. Conditions: aqueous buffer.
The subject of data set [1] is MOLM13 cell pair expressing wildtype GSPT1 or GSPT1 G575N. The data set is described as follows: Isogenic cell pair, endogenous GSPT1 vs non-degradable GSPT1 G575N. The format is cell-based, human. Particulars: MOLM13 overexpressing GSPT1 G575N. From the text: To further confirm if IL-1β induction is an on-target effect of GSPT1 degradation, intracellular pro-IL-1β and secreted IL-1βb levels in response to Compound 1 treatment were compared in an isogenic MOLM13 cell pair either expressing endogenous wildtype GSPT1 or overexpressing a non-degradable form of GSPT1 G575N.

Data set [2] deals with ML-2, MV4-11 and MOLM13 cell lines. The data set is described as follows: VEGF and TNFa levels, electrochemiluminescence assay. The format is cell-based, human. Particulars: compared to other mechanistic agents. The method, then:
IL-1α (Meso Scale Disgnostics, Cat No. K151RBD), IL-1β (Meso Scale Disgnostics, Cat No. K151QPD), IL-1RA (Meso Scale Disgnostics, Cat No. K151WTD), IL-18 (Meso Scale Disgnostics, Cat No. K151VJK), TNFa (Meso Scale Disgnostics, Cat No. K151QWD), VEGF Meso Scale Disgnostics, Cat No. K151RHD) levels were measured by (Meso Scale Disgnostics assay kits following manufacturer's instructions. Measurements were made on a MESO™ SECTOR S 600 plate reader (Meso Scale Disgnostics).
To further explore the mechanisms underlying IL-1β induction by Compound 1, and compounds with different, but related mechanisms to Compound 1 were tested in three AML cell lines, ML-2, MV4-11 and MOLM-13 (FIG. 4 and FIG. 5). Compound 1 degrades GSPT1 through cereblon mediated protein degradation, which leads to global translation inhibition, activation of ISR and subsequently apoptosis. […] To assess if GSPT1 degradation leads to pan-cytokine induction or specific to IL-1β, the compound effect was compared on the levels of two other known hypotension inducing cytokines, TNFa and VEGF (FIG. 7).

For the next data set, the system named is ML-2. The data set is described as follows: Cytokine induction, electrochemiluminescence assay of culture supernatant. The format is cell-based, human. Particulars: compounds at 1 μM, 72 hours.
Data set [3] concerns ML-2 parental, caspase 1 and caspase 8 knock out cells. Put plainly: IL-1β in CRISPR/Cas9 caspase 1 or caspase 8 knock out cells (lysate and supernatant). The format is cell-based, human. Particulars: 1 μM Compound 1. How it is done: To further confirm if caspase 8 is necessary for Compound 1 induced IL-1β upregulation and/or release, knock out studies were performed. Caspase 1 or caspase 8 was knocked out by CRISPR/Cas9 in ML-2 cells, and the effect of Compound 1 on intracellular and secreted IL-1β levels was investigated. Parental, caspase 1 and caspase 8 knock out cells were treated with or without 1 μM Compound 1. IL-1β levels were analyzed 48 and 72 hours post-compound treatment in cell lysate and culture supernatant.

With `O=C1CCC(N2Cc3cc(CNC(=O)C(F)(F)c4ccc(Cl)cc4)ccc3C2=O)C(=O)N1` (stereo not shown) [Compound 1, 2-(4-chlorophenyl)-N-((2-(2,6-dioxopiperidin-3-yl)-1-oxoisoindolin-5-yl)methyl)-2,2-difluoroacetamide], the concentration for half-maximal inhibition (IC50) with TF-1 was 0.105 µM; in the data set with NOMO-1, 0.0578 µM; with MV4-11, 0.0173 µM; in the data set with MOLM-13, 0.0762 µM; in the data set with KG-1, 0.0089 µM. Further, the solubility in the data set “physchem” is no more than 1 µg/mL. Also, the “Compound 1 mediated GSPT1 degradation, caspase 3 activation and viability loss” value in data set [1] is on record as “complete resistance”. For the same compound, the “Pro-IL-1β, intracellular and supernatant IL-1β induction” value in [1] is “completely blocked”. For the same compound, in data set [2], the “VEGF and TNFa levels” value is “did not induce more VEGF nor TNFa compared to other mechanistic agents”. Besides, the “Secreted IL-1β levels, panel of mechanistic compounds” value in the data set with ML-2 is “produced markedly more secreted IL-1β compared to all other compounds tested”. Further, in [3] (caspase 8 knock out ML-2 cells), the “Induction of IL-1β release” value was “compromised”. Besides, the Pro-IL-1β upregulation result in [3] (caspase 8 knock out ML-2 cells) is listed as “remains intact”. Further, the “Pro-IL-1β upregulation and secreted IL-1β” value in data set [3] (parental and caspase 1 knock out ML-2 cells, 48 and 72 hours) is “Upregulation of pro-IL-13 and increased secreted IL-1β were evident”.

A word on the IC50: it is the midpoint of a concentration-inhibition curve. The low end stands for higher potency, the high end for lower potency. Broadly, the solubility is the concentration that dissolves in the medium under given conditions. A lower solubility goes with a poorly soluble substance.

The values above are taken from patent US12090147B2, “Combination therapy with 2-(4-chlorophenyl)-N-((2-(2,6-dioxopiperidin-3-yl)-1-oxoisoindolin-5-yl)methyl)-2,2-difluoroacetamide” (Celgene Corporation, priority 2019, dated 2024).
